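Each compound was tested at five concentrations against cells in 96-well plates for 48 hours. TGI is the concentration that stops growth completely.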
Tests used:
Test in all cases: NCI-60 cell line screen, 48 h
[1] = tested on: COLO 205 colon
[2] = tested on: SK-MEL-5 melanoma
[3] = tested on: ACHN renal
[4] = tested on: NCI-H226 lung
[5] = tested on: HCT-116 colon
[6] = tested on: SF-295 CNS
[7] = tested on: OVCAR-5 ovarian
[8] = tested on: HCC-2998 colon
[9] = tested on: OVCAR-4 ovarian
[10] = tested on: MDA-MB-231 breast
[11] = tested on: PC-3 prostate
[12] = tested on: NCI-H460 lung
[13] = tested on: HT29 colon
[14] = tested on: A498 renal
[15] = tested on: UACC-62 melanoma
[16] = tested on: UO-31 renal
[17] = tested on: SN12C renal
[18] = tested on: HCT-15 colon
[19] = tested on: NCI/ADR-RES ovarian
[20] = tested on: TK-10 renal
[21] = tested on: SK-MEL-28 melanoma
[22] = tested on: 786-0 renal
[23] = tested on: DU-145 prostate
[24] = tested on: SF-539 CNS
[25] = tested on: MDA-MB-435
[26] = tested on: CAKI-1 renal
[27] = tested on: UACC-257 melanoma
[28] = tested on: LOX IMVI melanoma
[29] = tested on: MALME-3M melanoma
[30] = tested on: HOP-62 NSCLC
[31] = tested on: CCRF-CEM leukemia
[32] = tested on: BT-549 breast
[33] = tested on: HOP-92 NSCLC
[34] = tested on: MCF7 breast
[35] = tested on: HL-60(TB) leukemia
[36] = tested on: SW-620 colon
[37] = tested on: U251 CNS
[38] = tested on: OVCAR-3 ovarian
[39] = tested on: A549 NSCLC
[40] = tested on: NCI-H522 lung
[41] = tested on: SF-268 CNS
[42] = tested on: SK-MEL-2 melanoma
[43] = tested on: NCI-H23 lung
[44] = tested on: SK-OV-3 ovarian
[45] = tested on: SNB-75 CNS
[46] = tested on: SNB-19 CNS
[47] = tested on: SR leukemia
[48] = tested on: RXF 393 renal
[49] = tested on: HS 578T breast
[50] = tested on: IGROV1 ovarian
[51] = tested on: OVCAR-8 ovarian
[52] = tested on: KM12 colon

Question: `NC(N)=N/N=C/c1c(-c2ccc(Cl)c([N+](=O)[O-])c2)nc2sccn12` was tested. Which TGI [1] did it give?
Answer: The TGI was 2.61 µM.

Question: What about the TGI [2] of the same compound?
Answer: The TGI was 3.26 µM.

Question: And the TGI [3]?
Answer: Its TGI is 3.15 µM.

Question: And the TGI [4]?
Answer: Its TGI is 6.23 µM.

Question: What about the TGI [5] of the same compound?
Answer: Its TGI is 2.25 µM.

Question: And the TGI [6]?
Answer: The TGI was 3.47 µM.

Question: And the TGI [7]?
Answer: Its TGI is 3.12 µM.

Question: And the TGI [8]?
Answer: Its TGI is 2.94 µM.

Question: And the TGI [9]?
Answer: Its TGI is 4.49 µM.

Question: And the TGI [10]?
Answer: Its TGI is 3.24 µM.

Question: What about the TGI [11] of the same compound?
Answer: Its TGI is 3.11 µM.

Question: What about the TGI [12] of the same compound?
Answer: The TGI was 3.3 µM.

Question: What about the TGI [13] of the same compound?
Answer: Its TGI is 2.8 µM.

Question: And the TGI [14]?
Answer: Its TGI is 3.14 µM.

Question: And the TGI [15]?
Answer: Its TGI is 3.27 µM.

Question: What about the TGI [16] of the same compound?
Answer: Its TGI is 3.05 µM.

Question: What about the TGI [17] of the same compound?
Answer: Its TGI is 3.29 µM.

Question: What about the TGI [18] of the same compound?
Answer: The TGI was 3.5 µM.

Question: And the TGI [19]?
Answer: Its TGI is over 100 µM.

Question: What about the TGI [20] of the same compound?
Answer: The TGI was 3.16 µM.

Question: And the TGI [21]?
Answer: The TGI was 27.8 µM.

Question: And the TGI [22]?
Answer: The TGI was 3.15 µM.

Question: What about the TGI [23] of the same compound?
Answer: Its TGI is 3.17 µM.

Question: What about the TGI [24] of the same compound?
Answer: Its TGI is 3.27 µM.

Question: For `Cc1c2c(n3c(nc4ccccc43)c1C#N)N(c1ccc(F)cc1)CC2`, which TGI [25] is on record?
Answer: The TGI was over 100 µM.

Question: What about the TGI [1] of the same compound?
Answer: Its TGI is over 100 µM.

Question: And the TGI [26]?
Answer: The TGI was over 100 µM.

Question: And the TGI [2]?
Answer: The TGI was over 100 µM.

Question: And the TGI [27]?
Answer: Its TGI is over 100 µM.

Question: What about the TGI [28] of the same compound?
Answer: The TGI was over 100 µM.

Question: And the TGI [29]?
Answer: The TGI was over 100 µM.

Question: And the TGI [30]?
Answer: The TGI was over 100 µM.

Question: What about the TGI [3] of the same compound?
Answer: The TGI was over 100 µM.

Question: And the TGI [31]?
Answer: Its TGI is over 100 µM.

Question: And the TGI [32]?
Answer: Its TGI is over 100 µM.

Question: What about the TGI [4] of the same compound?
Answer: Its TGI is over 100 µM.

Question: What about the TGI [5] of the same compound?
Answer: Its TGI is over 100 µM.

Question: What about the TGI [33] of the same compound?
Answer: Its TGI is over 100 µM.

Question: And the TGI [6]?
Answer: Its TGI is over 100 µM.

Question: What about the TGI [34] of the same compound?
Answer: Its TGI is over 100 µM.

Question: And the TGI [7]?
Answer: Its TGI is over 100 µM.

Question: And the TGI [8]?
Answer: The TGI was over 100 µM.

Question: And the TGI [9]?
Answer: The TGI was over 100 µM.

Question: What about the TGI [11] of the same compound?
Answer: Its TGI is over 100 µM.

Question: And the TGI [35]?
Answer: Its TGI is over 100 µM.

Question: And the TGI [12]?
Answer: The TGI was over 100 µM.

Question: What about the TGI [13] of the same compound?
Answer: Its TGI is over 100 µM.

Question: And the TGI [36]?
Answer: The TGI was over 100 µM.

Question: What about the TGI [14] of the same compound?
Answer: Its TGI is over 100 µM.

Question: What about the TGI [37] of the same compound?
Answer: Its TGI is over 100 µM.

Question: What about the TGI [15] of the same compound?
Answer: Its TGI is over 100 µM.

Question: What about the TGI [38] of the same compound?
Answer: Its TGI is over 100 µM.

Question: What about the TGI [39] of the same compound?
Answer: Its TGI is over 100 µM.

Question: What about the TGI [16] of the same compound?
Answer: Its TGI is over 100 µM.

Question: And the TGI [40]?
Answer: The TGI was over 100 µM.

Question: And the TGI [41]?
Answer: The TGI was over 100 µM.

Question: What about the TGI [42] of the same compound?
Answer: Its TGI is over 100 µM.

Question: What about the TGI [43] of the same compound?
Answer: The TGI was over 100 µM.

Question: What about the TGI [17] of the same compound?
Answer: Its TGI is over 100 µM.

Question: And the TGI [44]?
Answer: The TGI was over 100 µM.

Question: What about the TGI [45] of the same compound?
Answer: Its TGI is over 100 µM.

Question: And the TGI [18]?
Answer: The TGI was over 100 µM.

Question: What about the TGI [19] of the same compound?
Answer: Its TGI is over 100 µM.

Question: And the TGI [20]?
Answer: Its TGI is over 100 µM.

Question: What about the TGI [21] of the same compound?
Answer: The TGI was over 100 µM.

Question: What about the TGI [46] of the same compound?
Answer: The TGI was over 100 µM.

Question: And the TGI [22]?
Answer: The TGI was over 100 µM.

Question: What about the TGI [47] of the same compound?
Answer: The TGI was over 100 µM.

Question: What about the TGI [48] of the same compound?
Answer: The TGI was over 100 µM.

Question: And the TGI [23]?
Answer: The TGI was over 100 µM.

Question: What about the TGI [49] of the same compound?
Answer: The TGI was over 100 µM.

Question: And the TGI [24]?
Answer: The TGI was over 100 µM.

Question: And the TGI [50]?
Answer: The TGI was over 100 µM.

Question: What about the TGI [51] of the same compound?
Answer: Its TGI is over 100 µM.

Question: Which results are given for `Cc1cn2c(/C=N/N=C(N)N)c(-c3ccc([N+](=O)[O-])cc3)nc2s1`?
Answer: TGI [1]: 1.97 µM; TGI [26]: 6.57 µM; TGI [52]: 1.72 µM; TGI [3]: 2.82 µM; TGI [7]: 2.14 µM; TGI [9]: 0.316 µM; TGI [11]: 2.73 µM; TGI [13]: 2.67 µM; TGI [36]: 0.331 µM; TGI [14]: 3.01 µM; TGI [16]: 3.37 µM; TGI [44]: 3.14 µM; TGI [45]: 1.87 µM; TGI [18]: 2.77 µM; TGI [19]: > 100 µM; TGI [21]: 3.05 µM; TGI [24]: 3.05 µM

Source: PubChem BioAssay (NCI)
